Data on 8 molecules can be found in US20230072421A1, “TARGETED RADIOPHARMACEUTICALS FOR THE DIAGNOSIS AND TREATMENT OF PROSTATE CANCER” (Bayer AS, priority 2019, published 2023).

The subject of one experiment is VCaP cells. Description: Cell proliferation assay (CellTiter-Glo, 5-day exposure), VCaP. To be noted: 4000 cells/well, Th-227 labelled at 375 kBq/nmol, mean of 1 to 6 experiments. Format: cell-based. The method, then: (§1) Inhibition of cell proliferation of Thorium-227 labeled PMSA SMOL ligands was tested different prostate cancer cell lines, namely 22Rv1, VCaP, C4-2 (all from ATCC, Manassas, Va., USA) and LNCaP (DMSZ, Braunschweig). Cells were seeded using the following conditions in 384 well plates (Corning) in 30 μl of growth media at 4000 cells/well for VCaP cells and 1000 cells/well for 22Rv1, C4-2 and LNCaP cells.
(§2) Cells were cultivated an incubator at 37° C. and 5% C02 over night. […] In sister plates cell viability at treatment start (d=0) was determined using CellTiter-Glo® assay (CTG, Promega, Madison, Wis., USA), by adding 30 μl per well CTG solution, incubation for 10 min and reading of Luminescence in a PheraStarFSX instrument (BMG Labtech). After a 5-day exposure in the presenced of test compounds, cell viability of treated or untreated control cells was determined again using CellTiter-Glo® assay (Promega, Madison, Wis., USA). […] The DRC software is a Biobook Spreadsheet that was developed by Bayer AG and Bayer Business Services on the IDBS E-Workbook Suite platform (IDBS: ID Business Solutions Ltd., Guildford, UK).
A general note: In ATP-based viability assays light output follows the ATP content of the culture.

In another experiment the test system is C4-2 cells. The experiment in a line: Cell proliferation assay (CellTiter-Glo, 5-day exposure), C4-2. The note with it: C4-2, 1000 cells/well, Th-227 labelled at 375 kBq/nmol, mean of 1 to 6 experiments. Format: cell-based. The procedure: as §1, §2
The test system of a further experiment is 22Rv1 cells. Description: Cell proliferation assay (CellTiter-Glo, 5-day exposure), 22Rv1. It counts as cell-based. The note with it: 22Rv1, 1000 cells/well, Th-227 labelled at 375 kBq/nmol, mean of 1 to 6 experiments. The procedure: as §1, §2
The test system of experiment [1] is LNCaP human prostate cancer cells. Description: LNCaP xenograft efficacy study (T/C tumor area). It counts as in vivo, SCID mice. The note with it: Example IV; day 36 after start of therapy; once 1 MBq/kg. The procedure:
SCID mice were randomly assigned to experimental groups, ten animals per group (efficacy) or n=3-5 per time point of biodistribution study. At the initiation of the study, a testosterone pellet was subcutaneously transplanted, the animals were shaved, tattooed and each cage was labeled with the cage number, study number and number of animals per cage.
LNCaP human prostate cancer cells were cultured as described according to the supplier's protocols. Cells were harvested for transplantation in a subconfluent (70%) state. Animals were injected with 5×10^6 LNCaP cells suspended in 100% Matrigel subcutaneously into the flank of the mice.
Efficacy study: When tumors reached a predetermined size in mice of 35-50 mm^2 animals were randomized into treatment and control groups (n=10 animals/group) and treatment with the defined radioactive dose was started. The i.v. application volume was 100 μl/mice.
Tumor response was assessed by determination of the tumor area (product of the longest diameter and its perpendicular) using a caliper. The animal body weight was monitored as a measure for treatment-related toxicity. Measurement of tumor area and body weight was performed two to three times weekly.
Animals were sacrificed when showing signs of toxicity (>20% body weight loss) or when tumors reached a size of approximately 200 mm^2.
Tumor growth inhibition is presented as T/C ratio (Treatment/Control) calculated with tumor areas when the vehicle control group had to be closed.

`Cc1cc(C(=O)NCCN(CCCN(CCNC(=O)c2cc(C)n(CC(=O)NCC3CCC(C(=O)NC(Cc4cnc5ccccc5c4)C(=O)NCCCCC(NC(=O)NC(CCC(=O)O)C(=O)O)C(=O)O)CC3)c(=O)c2[O-])CCNC(=O)c2cc(C)n(CC(=O)NCC3CCC(C(=O)NC(Cc4cnc5ccccc5c4)C(=O)NCCCCC(NC(=O)NC(CCC(=O)O)C(=O)O)C(=O)O)CC3)c(=O)c2[O-])CCNC(=O)c2cc(C)n(CC(=O)NCC3CCC(C(=O)NC(Cc4cnc5ccccc5c4)C(=O)NCCCCC(NC(=O)NC(CCC(=O)O)C(=O)O)C(=O)O)CC3)c(=O)c2[O-])c([O-])c(=O)n1CC(=O)O.[227Th+4]` (stereo not shown) [Example 22-C trimer-227Th]: the “Proliferation assay on cancer cell lines by TTCs Default Pivot #3 IC50 [kBq/mL] VCap 4000cells 375kBq/nmol (mean)” value with VCaP cells was 2.62 kBq/mL. Moreover, the “Proliferation assay on cancer cell lines by TTCs Default Pivot #3 IC50 [kBq/mL] C4-2 1000cells 375kBq/nmol (mean)” value in the experiment on C4-2 cells was found to be 1.82 kBq/mL. For the same molecule, in the experiment with 22Rv1 cells, the “Proliferation assay on cancer cell lines by TTCs Default Pivot #3 IC50 [kBq/mL] 22Rv1 1000cells 375kBq/nmol (mean)” value was determined as 0.84 kBq/mL. For the same molecule, the T/Carea in experiment [1] stood at 0.64.

As for `O=C([O-])CN1CCN(CC(=O)[O-])CCN(CC(=O)Nc2ccc(CC(=O)N[C@@H](Cc3ccc4ccccc4c3)C(=O)NCCCC[C@H](NC(=O)N[C@@H](CCC(=O)O)C(=O)O)C(=O)O)cc2)CCN(CC(=O)[O-])CC1.[227Th+4]` [Example 23-B-227Th, [^227Th]Thorium-(4S,11S,15S)-4-[(naphthalen-2-yl)methyl]-2,5,13-trioxo-1-[4-(2-{4,7,10-tris[(carboxy-kappaO)methyl]-1,4,7,10-tetraazacyclododecan-1-yl-kappa^4N^1,N^4,N^7,N^10}acetamido)phenyl]-3,6,12,14-tetraazaheptadecane-11,15,17-tricarboxylate], the “Proliferation assay on cancer cell lines by TTCs Default Pivot #3 IC50 [kBq/mL] VCap 4000cells 375kBq/nmol (mean)” value in the experiment on VCaP cells is reported as 3 kBq/mL. In addition, the “Proliferation assay on cancer cell lines by TTCs Default Pivot #3 IC50 [kBq/mL] C4-2 1000cells 375kBq/nmol (mean)” value in the experiment with C4-2 cells was 1.32 kBq/mL. In addition, the “Proliferation assay on cancer cell lines by TTCs Default Pivot #3 IC50 [kBq/mL] 22Rv1 1000cells 375kBq/nmol (mean)” value in the experiment with 22Rv1 cells was found to be 0.96 kBq/mL.

For the molecule `O=C([O-])CN1CCN(CC(=O)[O-])CCN(CC(=O)NCc2ccc(C(=O)N[C@@H](Cc3ccc4ccccc4c3)C(=O)NCCCC[C@H](NC(=O)N[C@@H](CCC(=O)O)C(=O)O)C(=O)O)cc2)CCN(CC(=O)[O-])CC1.[227Th+4]` [Example 24-B-227Th, [^227Th]Thorium (3S,10S,14S)-3-[(naphthalen-2-yl)methyl]-1,4,12-trioxo-1-{4-[(2-{4,7,10-tris[(carboxy-kappaO)methyl]-1,4,7,10-tetraazacyclododecan-1-yl-kappa^4N^1,N^4,N^7,N^10}acetamido)methyl]phenyl}-2,5,11,13-tetraazahexadecane-10,14,16-tricarboxylate], the “Proliferation assay on cancer cell lines by TTCs Default Pivot #3 IC50 [kBq/mL] VCap 4000cells 375kBq/nmol (mean)” value in the experiment with VCaP cells is reported as 0.68 kBq/mL. For the same molecule, the “Proliferation assay on cancer cell lines by TTCs Default Pivot #3 IC50 [kBq/mL] C4-2 1000cells 375kBq/nmol (mean)” value in the experiment on C4-2 cells came to 0.12 kBq/mL. For the same molecule, in the experiment with 22Rv1 cells, the “Proliferation assay on cancer cell lines by TTCs Default Pivot #3 IC50 [kBq/mL] 22Rv1 1000cells 375kBq/nmol (mean)” value worked out at 0.56 kBq/mL.

Regarding `O=C([O-])CN1CCN(CC(=O)[O-])CCN(CC(=O)NCc2ccc(C(=O)N[C@@H](Cc3ccc4ccccc4c3)C(=O)NCCCC[C@H](NC(=O)N[C@@H](CCC(=O)O)C(=O)O)C(=O)O)nc2)CCN(CC(=O)[O-])CC1.[227Th+4]` [Example 25-B-227Th, [^227Th]Thorium (3S,10S,14S)-3-[(naphthalen-2-yl)methyl]-1,4,12-trioxo-1-{5-[(2-{4,7,10-tris[(carboxy-kappaO)methyl]-1,4,7,10-tetraazacyclododecan-1-yl-kappa^4N^1,N^4,N^7,N^10}acetamido)methyl]pyridin-2-yl}-2,5,11,13-tetraazahexadecane-10,14,16-tricarboxylate], the “Proliferation assay on cancer cell lines by TTCs Default Pivot #3 IC50 [kBq/mL] VCap 4000cells 375kBq/nmol (mean)” value in the experiment with VCaP cells amounted to 1.51 kBq/mL. In the experiment on C4-2 cells, the “Proliferation assay on cancer cell lines by TTCs Default Pivot #3 IC50 [kBq/mL] C4-2 1000cells 375kBq/nmol (mean)” value is on record as 0.1 kBq/mL. Further, the “Proliferation assay on cancer cell lines by TTCs Default Pivot #3 IC50 [kBq/mL] 22Rv1 1000cells 375kBq/nmol (mean)” value with 22Rv1 cells came to 0.73 kBq/mL.

Regarding `O=C([O-])CN1CCN(CC(=O)[O-])CCN(CC(=O)NCc2ccc(C(=O)N[C@@H](Cc3ccc4ccccc4c3)C(=O)NCCCC[C@H](NC(=O)N[C@@H](CCC(=O)O)C(=O)O)C(=O)O)cn2)CCN(CC(=O)[O-])CC1.[227Th+4]` [Example 26-B-227Th, [^227Th]Thorium (3S,10S,14S)-3-[(naphthalen-2-yl)methyl]-1,4,12-trioxo-1-{6-[(2-{4,7,10-tris[(carboxy-kappaO)methyl]-1,4,7,10-tetraazacyclododecan-1-yl-kappa^4N^1,N^4,N^7,N^10}acetamido)methyl]pyridin-3-yl}-2,5,11,13-tetraazahexadecane-10,14,16-tricarboxylate], the “Proliferation assay on cancer cell lines by TTCs Default Pivot #3 IC50 [kBq/mL] VCap 4000cells 375kBq/nmol (mean)” value in the experiment with VCaP cells was 1.15 kBq/mL. Also, the “Proliferation assay on cancer cell lines by TTCs Default Pivot #3 IC50 [kBq/mL] C4-2 1000cells 375kBq/nmol (mean)” value in the experiment with C4-2 cells worked out at 0.12 kBq/mL. Besides, the “Proliferation assay on cancer cell lines by TTCs Default Pivot #3 IC50 [kBq/mL] 22Rv1 1000cells 375kBq/nmol (mean)” value in the experiment with 22Rv1 cells is reported as 0.87 kBq/mL.

`O=C([O-])CN1CCN(CC(=O)[O-])CCN(CC(=O)NCc2cccc(C(=O)N[C@@H](Cc3ccc4ccccc4c3)C(=O)NCCCC[C@H](NC(=O)N[C@@H](CCC(=O)O)C(=O)O)C(=O)O)c2)CCN(CC(=O)[O-])CC1.[227Th+4]` [Example 27-B-227Th, [^227Th]Thorium (3S,10S,14S)-3-[(naphthalen-2-yl)methyl]-1,4,12-trioxo-1-{3-[(2-{4,7,10-tris[(carboxy-kappaO)methyl]-1,4,7,10-tetraazacyclododecan-1-yl-kappa^4N^1,N^4,N^7,N^10}acetamido)methyl]phenyl}-2,5,11,13-tetraazahexadecane-10,14,16-tricarboxylate]: in the experiment on VCaP cells, the “Proliferation assay on cancer cell lines by TTCs Default Pivot #3 IC50 [kBq/mL] VCap 4000cells 375kBq/nmol (mean)” value was 0.73 kBq/mL. For the same molecule, the “Proliferation assay on cancer cell lines by TTCs Default Pivot #3 IC50 [kBq/mL] C4-2 1000cells 375kBq/nmol (mean)” value with C4-2 cells is 0.08 kBq/mL. Moreover, the “Proliferation assay on cancer cell lines by TTCs Default Pivot #3 IC50 [kBq/mL] 22Rv1 1000cells 375kBq/nmol (mean)” value in the experiment on 22Rv1 cells is given as 0.65 kBq/mL.

With `O=C([O-])CN1CCN(CC(=O)[O-])CCN(CC(=O)Nc2ccc(-c3ccn(CC(=O)N[C@@H](Cc4ccc5ccccc5c4)C(=O)NCCCC[C@H](NC(=O)N[C@@H](CCC(=O)O)C(=O)O)C(=O)O)n3)cc2)CCN(CC(=O)[O-])CC1.[227Th+4]` [Example 28-B-227Th, [^227Th]Thorium (4S,11S,15S)-4-[(naphthalen-2-yl)methyl]-2,5,13-trioxo-1-{3-[4-(2-{4,7,10-tris[(carboxy-kappaO)methyl]-1,4,7,10-tetraazacyclododecan-1-yl-kappa^4N^1,N^4,N^7,N^10}acetamido)phenyl]-1H-pyrazol-1-yl}-3,6,12,14-tetraazaheptadecane-11,15,17-tricarboxylate], the “Proliferation assay on cancer cell lines by TTCs Default Pivot #3 IC50 [kBq/mL] VCap 4000cells 375kBq/nmol (mean)” value with VCaP cells worked out at 4.77 kBq/mL. In the experiment on C4-2 cells, the “Proliferation assay on cancer cell lines by TTCs Default Pivot #3 IC50 [kBq/mL] C4-2 1000cells 375kBq/nmol (mean)” value turned out to be 2.22 kBq/mL. Moreover, the “Proliferation assay on cancer cell lines by TTCs Default Pivot #3 IC50 [kBq/mL] 22Rv1 1000cells 375kBq/nmol (mean)” value in the experiment on 22Rv1 cells is given as 1.22 kBq/mL.

As to “[^227Th]Thorium-{N^6-[3-(quinolin-2-yl)-N-{(1r,4S)-4-[(2-{4,7,10-tris[(carboxy-kappaO)methyl]-1,4,7,10-tetraazacyclododecan-1-yl-kappa^4N^1,N^4,N^7,N^10}acetamido)methyl]cyclohexane-1-carbonyl}-L-alanyl]-N^2-{[(1S)-1,3-dicarboxypropyl]carbamoyl}-L-lysinate} [Example 17-B-227Th]”, the “Proliferation assay on cancer cell lines by TTCs Default Pivot #3 IC50 [kBq/mL] VCap 4000cells 375kBq/nmol (mean)” value with VCaP cells is reported as 0.73 kBq/mL. The “Proliferation assay on cancer cell lines by TTCs Default Pivot #3 IC50 [kBq/mL] C4-2 1000cells 375kBq/nmol (mean)” value in the experiment with C4-2 cells is recorded as 0.15 kBq/mL. The “Proliferation assay on cancer cell lines by TTCs Default Pivot #3 IC50 [kBq/mL] 22Rv1 1000cells 375kBq/nmol (mean)” value with 22Rv1 cells worked out at 0.8 kBq/mL.
